Assay results published in PubChem BioAssay AID179 (DTP/NCI, 2004).
Activity calls are given as the source filed them.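 How the source made its calls: active means compounds giving half or more protection of infected cells from virus-caused growth loss, again on retest; inactive means the rest.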

Tested on: CEM cells HIV-1 protection, formazan growth assay
Assay: NCI AIDS Antiviral Assay
Conditions: for IC50: measured here: growth of uninfected CEM cells
Protocol: The ability of compounds to protect human CEM cells from HIV-1 infection is measured as a screen for new compounds capable of inhibiting the HIV virus. Five concentrations of drug were tested on uninfected and infected cells and cell growth was measured using a soluble formazan assay. […] Compounds that provided at least 50% protection were retested. Compounds that provided at least 50% protection on retest were listed as moderately active. Compounds that reproducibly provided 100% protection were listed as confirmed active. […] Note that the inability to provide protection could be due to toxicity.

SMILES	EC50	IC50	outcome
C#Cc1cc(CN(CC(=O)OC(C)(C)C)CC(=O)OC(C)(C)C)nc(CN(CC(=O)OC(C)(C)C)CC(=O)OC(C)(C)C)c1	> 11.5 µM	0.204 µM	
CCCCSc1nc2c(=O)[nH][nH]c(=O)c2n1Cc1ccccc1	> 200 µM	158 µM	
O=C(Cc1nc2c3c(ccc2[nH]c1=O)C(=O)c1ccccc1C3=O)C(=O)Nc1ccccc1[N+](=O)[O-]	> 38.9 µM	10 µM	
CC(C)N(C(=O)c1ccc([N+](=O)[O-])cc1)C(C)C	> 200 µM	> 200 µM	
Cc1ccc(N2C(=O)/C(=C/c3ccc(N(CCC#N)CCC#N)cc3C)N=C2c2cc([N+](=O)[O-])ccc2Cl)cc1			inactive
CC(=O)OCC1(C)ON=C2CCCCC21 (configuration not stated)	> 1170 µM	> 1170 µM	
Cc1cc(=O)oc2cc(OCCCOc3ccc4c(C)cc(=O)oc4c3)ccc12	> 3.72 µM	> 3.72 µM	
CN(C)c1cccc2c(S(=O)O)cccc12	> 200 µM	> 200 µM	
O=[N+]([O-])c1cc2ccc1OCc1cccc(n1)COc1ccc(cc1[N+](=O)[O-])C=NCCCCCCCCN=C2	> 200 µM	> 200 µM	
O=C1c2ccc(O)c(O)c2C(=O)c2c(O)ccc(O)c21	> 63.1 µM	11.7 µM	
C=CC[C@]1(C(C)C(OC(C)=O)c2ccc3c(c2)OCO3)C[C@@H](OC)C=CC1=O (some centres not stated)	> 20 µM	1.48 µM	
N#CCc1ccc(C(C#N)/C(CCCC(=O)Nc2cccc([N+](=O)[O-])c2)=N/NC(N)=S)cc1 (configuration not stated)			inactive
Cc1nn(C(=O)CC(=O)Nc2ccccc2Cl)c(C)c1N=Nc1ccccc1F			inactive
COC(=O)C[C@](O)(CCC(C)(C)O)C(=O)O[C@@H]1C(OC)=C[C@]23CCCN2CCc2cc4c(cc2[C@H]13)OCO4			inactive
O=c1c2cc(Br)ccc2nc(-c2ccccc2)n1NCC1(O)OCC(O)C(O)C1O (configuration not stated)			inactive
CC(NC(=O)NC(C)(C)C)NC(=O)C(N)CC(=O)O (configuration not stated)	> 200 µM	> 200 µM	
C=CC[C@@H](N)C(=O)N(C)[C@@H](C)[C@@H](O)c1ccccc1	> 200 µM	> 200 µM	
COc1ccc2nc3cccc([N+](=O)[O-])c3c(NCCCO)c2c1	> 2 µM	0.017 µM	
CC(C)(C)OC(=O)N1Cc2cc(O)ccc2C[C@H]1C(=O)O	> 200 µM	> 200 µM	
Oc1nc2nc[nH]n2c1N=Nc1ccccc1	> 200 µM	> 200 µM	
COc1ccc(-n2sc3ncc(C)cc3c2=O)cc1	0.49 µM	10.5 µM	

SMILES	EC50	IC50	outcome
Cn1cc(NC(=O)c2cc(NC(=O)Nc3cc(C(=O)Nc4cc(C(=O)NCCC(=N)N)n(C)c4)n(C)c3)cn2C)cc1C(=O)NCCC(=N)N	15.1 µM	77.6 µM	
CC/C(=C(\C#N)c1ccc(F)cc1)c1ccc(OCCN(CC)CC)cc1	> 200 µM	2.51 µM	
CN(C)c1nc(N(C)C)n2nc(-c3ccccc3[N+](=O)[O-])nc2n1	> 21.9 µM	0.00708 µM	
CN(C)CC1=C(O)c2ccccc2C(=O)C1=O	> 1070 µM	> 1070 µM	
Oc1[nH]c2ccccc2c1N=NC(=S)Nc1ccc(Cl)cc1	> 200 µM	24.5 µM	
O=c1c(SCc2ccccc2Cl)c(SCc2ccccc2Cl)cnn1-c1ccccc1	> 7.76 µM	5.5 µM	
COc1cc([N+](=O)[O-])ccc1C(=O)Nc1c2ccccc2nc2ccccc12	> 200 µM	0.479 µM	
CC(=O)OC1C(COS(=O)(=O)O)OC(O[C@H]2CC[C@@]3(C)C(=CC[C@@H]4C3CC[C@@]3(C)C4CC[C@@H]3C(C)=O)C2)C(OC(C)=O)C1OC(C)=O (some centres not stated)	> 31.6 µM	> 31.6 µM	
C=C[C@H](C)[C@H](O[Si](C)(C)C(C)(C)C)c1c(O)c2c(c3c(CCC)cc(=O)oc13)OC(C)(C)C=C2	> 200 µM	39.8 µM	
O=Nc1ccc(O)c2ncccc12			inactive
C/C(CC(C)C)=N/Nc1nc(C)cc(=O)[nH]1	> 200 µM	> 200 µM	
CN(C)CCCNC(=O)c1c(O)c2ccccc2n(C)c1=O	> 200 µM	79.4 µM	
Cn1cc(S(=O)(=O)NC(=O)Nc2ccc(Cl)cc2)c(=O)c2ccc(F)cc21			inactive
COC(=O)C1NC(C)(C(=O)OC)C2C(=O)NC(=O)C12 (configuration not stated)	> 933 µM	> 933 µM	
S=C(N/N=C(\c1ccccc1)c1ccccn1)NC1CCCCC1	> 200 µM	2.4 µM	
Cn1c(=S)[nH]c2c(Cl)cc(Cl)cc2c1=O	> 200 µM	138 µM	
NCC#CCNCCCN1CC1	> 200 µM	> 200 µM	
CC12CC(=O)C3C(C(=O)C1)C32C (configuration not stated)	> 200 µM	> 200 µM	
OCC(O)C1OC(c2ccco2)OC(CO)C1O (configuration not stated)	> 200 µM	> 200 µM	
COc1cccc(C=O)c1[O-].COc1cccc(C=O)c1[O-].[Cu+2]	> 97.7 µM	9.33 µM	
COc1cc2c3c(c1)nc(C)n3C(=O)CS2	> 200 µM	> 200 µM	

SMILES	EC50	IC50	outcome
CCOC(=O)c1c(OCCCc2ccc(F)cc2)cc2ccc3ccccc3c2c1OCCCc1ccc(F)cc1	> 18.2 µM	> 18.2 µM	
O=C1OC(=O)C2C1C=C(c1ccccc1)C1C3C=CC(C4C(=O)OC(=O)C34)C21 (configuration not stated)	> 200 µM	> 200 µM	
COC(=O)c1cc(C(=CCC[C@H]2CC[C@@]3(C)C(CCC4C3CC[C@@]3(C)C4CC[C@@H]3C(C)CCCC(C)C)C2)c2cc(Cl)c(OC(=O)c3ccccc3)c(C(=O)OC)c2)cc(Cl)c1OC(=O)c1ccccc1 (some centres not stated)	> 200 µM	> 200 µM	
CC1(C23CC4CC(CC(C4)C2)C3)n2c(=O)n(-c3ccccc3)c(=O)n2C1(C)C12CC3CC(CC(C3)C1)C2 (configuration not stated)	> 50.1 µM	> 50.1 µM	
O=[N+]([O-])c1ccc2c(c1)N([O-])C1(CCCCC1)[N+]2=O	> 200 µM	3.98 µM	
O=c1/c(=C/c2ccccc2[N+](=O)[O-])sc2nnc(-c3ccco3)n12	> 29.5 µM	> 29.5 µM	
CCOC(=O)c1c[nH]c2cc(OCC3CC3)c(OCC3CC3)cc2c1=O	> 200 µM	> 200 µM	
COC1(C)CP(=O)(OC(C)C)CC(C)=C1Cl (configuration not stated)	> 20 µM	7.59 µM	
COC(=O)c1ccccc1/C=C1\Cc2c(ccc3c2CCC3)C1=O	> 151 µM	> 151 µM	
C=C(C)C(C)(C)n1[nH]c(=O)n(-c2ccccc2)c1=O	> 200 µM	> 200 µM	
COC1CC(OC2C(C)OC(OC3C(C)OC(OC4C(O)CC(O[C@H]5CC[C@@]6(C)C(=CC[C@]7(O)[C@@H]6C[C@@H](OC(=O)/C=C/c6ccccc6)[C@@]6(C)[C@]7(O)CC[C@@]6(O)C(C)=O)C5)OC4C)CC3OC)CC2OC)OC(C)C1O (some centres not stated)	> 200 µM	37.2 µM	
CCC(=O)C1(c2cccc(OC)c2)CCN(C)CC1	> 832 µM	457 µM	
CC1(C)C=CC(C)(C)c2c(NS(=O)(=O)c3ccccc3)ccc(NS(=O)(=O)c3ccccc3)c21	> 200 µM	63.1 µM	
CCOC(=O)C(CC1OCCO1)C1=NC(C)(C)CC(C)O1 (configuration not stated)	> 200 µM	> 200 µM	
COC(=O)c1nc(NC#N)[nH]c(=O)c1C	> 34.7 µM	> 34.7 µM	
NCCN(CCN)CCN	> 151 µM	> 151 µM	
COC(=O)C(Cc1nc2ccc(Cl)cc2[nH]c1=O)C(=O)C(=O)Nc1cc(C)ccc1C (configuration not stated)	> 214 µM	> 214 µM	
COC(=O)C(Cc1c[nH]c2ccccc12)NC(=O)C(Cc1cnc[nH]1)NC(=O)C1CCC(=O)N1C(=O)OCc1ccccc1 (configuration not stated)	> 200 µM	> 200 µM	
CSc1nc(C)cc(=O)n1C1OC(COC(C)=O)C(OC(C)=O)C(OC(C)=O)C1OC(C)=O (configuration not stated)	> 200 µM	> 200 µM	
O=C1C2CCN(CC2)C1CN1CCOCC1 (configuration not stated)			inactive
Nc1c(S)cc(O)c2c1C(=O)c1ccccc1C2=O	> 100 µM	> 100 µM	

SMILES	EC50	IC50	outcome
COc1ccc(Cn2nc(OCc3ccccc3)c3cc([N+](=O)[O-])ccc32)cc1	> 200 µM	25.1 µM	
CC1(C)CC(=O)CC(C)(C)ON1			inactive
CCOP(=O)(OCC)/C(C#N)=C/c1ccc(C)o1	> 933 µM	129 µM	
CSc1nc2[nH]c(=O)n(OS(=O)(=O)c3ccccc3)c(=O)c2n1Cc1ccccc1	> 200 µM	105 µM	
C[Si](C)(C)C#CC(O)CS(=O)c1ccccc1 (configuration not stated)	> 200 µM	105 µM	
Cn1c(=O)c2c(ncn2CC(=O)N/N=C2\SCC(=O)N2Cc2ccccc2)n(C)c1=O	> 74.1 µM	> 74.1 µM	
S=C(N/N=C/c1ccccc1)NC1CC(c2ccccc2)Oc2ccccc21 (configuration not stated)			inactive
CN(C)CCCc1cccc2[nH]c3c(c12)CN(C)CC3	> 200 µM	126 µM	
Cc1ccnc(NC(=S)Nc2cc(C)ccn2)c1	> 200 µM	135 µM	
COc1ccccc1/C=C(/C(=O)c1ccccc1)c1ccccc1	> 8.71 µM	> 8.71 µM	
Cc1ccc(-c2cc(-c3ccco3)c(C#N)c(=O)n2C2OC(OC(=O)c3ccccc3)C(OC(=O)c3ccccc3)C2OC(=O)c2ccccc2)cc1 (configuration not stated)	> 10.2 µM	> 10.2 µM	
CN(C)c1ccc(C=Nc2ccc(Oc3ccc(Cl)cc3)c(Cl)c2)cc1	> 200 µM	28.2 µM	
O=Nc1c(NO)ccc2nn(-c3ccccc3)nc12	> 20 µM	1.32 µM	
Cc1cc(C)nc(NS(=O)(=O)c2ccc(Nc3c4ccccc4nc4c(C(=O)NCCCN(CCO)CCO)cccc34)cc2)n1	> 200 µM	6.46 µM	
COC(=O)Nc1nc2ccc(C(=O)C3CC3)cc2[nH]1	> 200 µM	0.219 µM	
CCOC(=O)C(C(=O)OCC)C(c1ccc(OC)cc1)N1CCN(C(c2ccc(OC)cc2)C(C(=O)OCC)C(=O)OCC)CC1 (configuration not stated)	> 100 µM	> 100 µM	
COc1cc(/C=C/C(C)=O)ccc1OP(=O)(O)O	> 200 µM	> 200 µM	
CCOC(=O)C1C(c2ccc(F)cc2)C(C(=O)OCC)C(O)(C(F)(F)F)OC1(O)C(F)(F)F (configuration not stated)			inactive
O=c1oc2ccccc2c(-c2ccc(O)cc2)c1Oc1ccc(Cl)cc1			inactive
